Measurements published in article PMC11596557, “Exiguolysin, a Novel Thermolysin (M4) Peptidase from Exiguobacterium oxidotolerans” (Microorganisms, 2024).
One block for each molecule: values may come before it.

Tests used:
[1] = system: E. oxidotolerans peptidase; test: Casein zymography with and without 1,10-phenanthroline; format: biochemical, Exiguobacterium oxidotolerans; conditions: crude and purified samples; 1,10-phenanthroline in renaturing buffer
Description: Casein zymography was used to visualize protease activity in fractions collected from the Akta Prime HIC system. Samples were prepared in Laemmli buffer and run on a Tris-Glycine casein zymogram gel using the XCell SureLock™ Mini-Cell system. Following electrophoresis, gels were sectioned and renatured in Novex zyogram renaturing buffer with and without 1,10 phenanthroline (5 mM) to assess metalloprotease activity. Gels were stained, destained, and analyzed for caseinolytic peptidase activity.

[2] = system: E. oxidotolerans protease; test: Azocasein hydrolysis with class-specific protease inhibitors (culture supernatant); format: biochemical, Exiguobacterium oxidotolerans; conditions: 1,10-phenanthroline 2 mM, PMSF 0.2 mM, E-64 10 μM; 37 °C, 1 h; crude preparation
Description: Peptidase activity was quantified using azocasein hydrolysis. Conditioned media (100 µL) was mixed with 1% (w/v) azocasein in PBS and incubated at […] for 1 h. The reaction was quenched by adding 400 µL of 5% trifluoroacetic acid (TFA), and the mixture was centrifuged at 13,000 rpm for 10 min. Absorbance of the supernatant was measured at 440 nm to determine protease activity. Units of protease activity were calculated as previously described by Loomes et al..
Overnight cultures were centrifuged (4000 rpm, 4 °C, 12 min), and the supernatant was filtered through a 0.45 µm nitrocellulose membrane. Protease activity was evaluated by incubating 100 µL of supernatant with 1% azocasein at 37 °C for 1 h. The reaction was quenched with 400 µL of TFA, and absorbance was measured at 440 nm. Protease mechanistic class was determined by incubating the supernatant with 2 mM 1,10-phenanthroline (metalloprotease inhibitor), 0.2 mM PMSF (serine protease inhibitor), and 10 µM E-64 (cysteine protease inhibitor) prior to azocasein hydrolysis.

[3] = system: E. oxidotolerans peptidase; test: Fluorogenic substrate hydrolysis progress curves with class-specific inhibitors (purified enzyme); format: biochemical, Exiguobacterium oxidotolerans; conditions: 1,10 phenanthroline 2 mM, PMSF 0.2 mM, E-64 10 μM
Description: Peptidase activity was confirmed using the matrix metalloproteinase (MMP) substrate Mca-Lys-Pro-Leu-Gly-Leu-Dap-(Dnp)-Ala-Arg-NH2 (Peptides International). Class-specific inhibitors were used to determine the catalytic mechanism, including E-64 (10 μM) for cysteine proteases, 1,10 phenanthroline (2 mM) for metalloproteases, and PMSF (0.2 mM) for serine proteases. These concentrations were selected based on established guidelines for effective inhibition. Fluorescence was monitored at excitation 330 nm and emission 460 nm over a 45 min period as described previously.
Time-dependent hydrolysis of the fluorogenic substrate Mca-Lys-Pro-Leu-Gly-Leu-Dap-(Dnp)-Ala-Arg-NH2 by exiguolysin was measured in 96-well plates (total volume 100 µL) with fluorescence was measured every 30 s for 45 min using a plate reader (excitation at 330 nm and emission at 460 nm). Progress curves were generated, and kinetic parameters were determined using non-linear regression.

[4] = target: thermolysin-like protease of E. oxidotolerans (exiguolysin) (Exiguobacterium oxidotolerans, UniProt A0A653I866); test: Inhibitor screening and Ki determination, fluorogenic MMP substrate assay; format: biochemical; conditions: fluorogenic substrate hydrolysis, 37 °C; Morrison equation for tight-binding inhibitors; Km 14.20 µM; read-out: True Ki
Description: The inhibition of protease activity was screened using a 20 × 20 library of N-alpha dipeptide mercaptoamide inhibitors as previously described by Cathcart et al., and the half-maximal inhibitory constant (Ki) values were determined. In order to determine Michaelis–Menten constant, Km, of the fluorogenic substrate, exiguolysin (previously purified by HIC, final concentration 5 units/well) was added to wells of a 96-well black microtitre plate (Nunc); the volume was adjusted to 75 µL in assay buffer (25 mM Tris, 2.5 mM CaCl2, pH 7.0), and fluorogenic substrate (25 µL) was added at concentrations of 0, 1, 10, 25, 50, 100 and 200 µM. Time-dependent hydrolysis of the fluorogenic substrate was measured (excitation/emission […] nm) every 30 s for 30 min. The Km is determined using the Michealis–Menten equation, by plotting the rate of substrate hydrolysis against substrate concentration.
Initially, each inhibitor was tested at a final concentration of 100 µM in a broad-spectrum screen, employing a standard fluorogenic substrate assay using Mca-Lys-Pro-Leu-Gly-Leu-Dap-(Dnp)-Ala-Arg-NH2. Enzyme reactions were carried out in a 96-well black plate at 37 °C, and fluorescence was monitored as described above.

PAR-1 = target: T1, PAR-1 (Homo sapiens, UniProt P25116); test: Calcium mobilization assay in PC-3 cells (Fluo-4 AM); format: cell-based; conditions: protease pre-incubated with inhibitor, thrombin-induced activation
T1 construct: calcium mobilization in PC-3 cells (expressing PAR1); endogenous in cells; host or cells: PC-3
T1 sequence (P25116 22-425): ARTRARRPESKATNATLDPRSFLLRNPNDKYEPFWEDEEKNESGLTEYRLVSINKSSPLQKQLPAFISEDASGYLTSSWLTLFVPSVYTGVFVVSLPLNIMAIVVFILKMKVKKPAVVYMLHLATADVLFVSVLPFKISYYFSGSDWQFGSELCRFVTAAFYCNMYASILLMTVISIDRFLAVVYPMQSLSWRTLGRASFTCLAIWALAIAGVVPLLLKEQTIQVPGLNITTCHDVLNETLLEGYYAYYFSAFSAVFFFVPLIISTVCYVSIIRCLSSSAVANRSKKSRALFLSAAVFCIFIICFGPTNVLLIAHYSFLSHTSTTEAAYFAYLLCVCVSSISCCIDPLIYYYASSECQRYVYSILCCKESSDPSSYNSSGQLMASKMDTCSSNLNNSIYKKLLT
Description: Calcium mobilization in PC-3 and HCT15 cells was assessed using the fluorescent calcium indicator Fluo-4 AM (ThermoFisher, UK). Cells were cultured in RPMI-1640 medium with 10% fetal bovine serum and antibiotics, maintained at 37 °C with 5% CO2. Cells were seeded in 96-well plates and incubated with 5 μM Fluo-4 AM for 30 min at 37 °C. After washing, cells were treated with 5 units/well of thermolysin-like protease or the agonists TFLLRN (PAR-1) and SLIGKV (PAR-2). Intracellular calcium changes were monitored using a BMG Fluostar plate reader (excitation: 494 nm, emission: 516 nm).

Sequence of thermolysin-like protease of E. oxidotolerans (exiguolysin) (A0A653I866 entry or part of it): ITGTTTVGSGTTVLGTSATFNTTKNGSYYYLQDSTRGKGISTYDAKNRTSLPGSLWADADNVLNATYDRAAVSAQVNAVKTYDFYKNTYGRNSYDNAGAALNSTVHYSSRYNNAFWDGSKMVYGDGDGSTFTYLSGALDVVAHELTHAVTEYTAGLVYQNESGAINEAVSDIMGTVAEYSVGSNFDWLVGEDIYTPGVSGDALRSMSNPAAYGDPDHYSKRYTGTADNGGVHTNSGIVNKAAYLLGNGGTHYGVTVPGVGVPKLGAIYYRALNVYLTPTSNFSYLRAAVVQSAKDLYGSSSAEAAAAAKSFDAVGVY

Structure (SMILES): c1cnc2c(c1)ccc1cccnc12 [1,10-phenanthroline]
Inhibition of proteolytically active bands in zymogram [1]: inhibited | Inhibition of azocasein hydrolysis [2]: significantly reduced protease activity | Inhibition of hydrolysis of Mca-Lys-Pro-Leu-Gly-Leu-Dap-(Dnp)-Ala-Arg-NH2 (progress curves) [3]: significantly inhibited

Reversal of the protease's PAR-1 disarming effect (PAR-1): reversed
Structure (SMILES): N=C(N)NCCCC(NC(=O)C1CCCN1C(=O)CS)C(N)=O (stereo not drawn) [Me-Pro-Arg-NH2, SH-CH2-CO-Pro-Arg-NH2]
Ki [4]: 3.97 µM

Structure (SMILES): NCCCCC(NC(=O)C(CC(N)=O)NC(=O)CS)C(N)=O (stereo not drawn) [Me-Asn-Lys-NH2]
Ki [4]: 20.9 µM

Structure (SMILES): O=S(=O)(F)Cc1ccccc1 [PMSF]
Inhibition of azocasein hydrolysis [2]: Slight inhibition | Inhibition of hydrolysis of Mca-Lys-Pro-Leu-Gly-Leu-Dap-(Dnp)-Ala-Arg-NH2 (progress curves) [3]: minimal effects

Structure (SMILES): CCC(C)C(NC(=O)CS)C(=O)NC(C(N)=O)C(C)C (stereo not drawn) [Me-Ile-Val-NH2]
Ki [4]: 8.33 µM

Structure (SMILES): CC(C)C(NC(=O)C(NC(=O)CS)C(C)C)C(N)=O (stereo not drawn) [Me-Val-Val-NH2]
Ki [4]: 3.21 µM

Structure (SMILES): CCC(C)C(NC(=O)C(NC(=O)CS)C(C)CC)C(N)=O (stereo not drawn) [Me-Ile-Ile-NH2]
Ki [4]: 11.2 µM

Structure (SMILES): NC(=O)CC(NC(=O)CS)C(=O)NC(Cc1c[nH]c2ccccc12)C(N)=O (stereo not drawn) [Me-Asn-Trp-NH2]
Ki [4]: 4.35 µM

Structure (SMILES): NC(=O)C(Cc1ccccc1)NC(=O)C(Cc1ccc(O)cc1)NC(=O)CS (stereo not drawn) [Me-Tyr-Phe-NH2]
Ki [4]: 5.52 µM

Structure (SMILES): CSCCC(NC(=O)CS)C(=O)NC(Cc1ccc(O)cc1)C(N)=O (stereo not drawn) [Me-Met-Tyr-NH2, SH-CH2-CO-Met-Tyr-NH2]
Ki [4]: 1.95 µM

Structure (SMILES): CC(C)C[C@H](NC(=O)[C@H]1O[C@@H]1C(=O)O)C(=O)NCCCCN=C(N)N [Inhibitor E-64, E-64]
Inhibition of azocasein hydrolysis [2]: partial inhibition | Inhibition of hydrolysis of Mca-Lys-Pro-Leu-Gly-Leu-Dap-(Dnp)-Ala-Arg-NH2 (progress curves) [3]: minimal effects

Structure (SMILES): NC(=O)CC(NC(=O)CS)C(=O)NC(Cc1ccc(O)cc1)C(N)=O (stereo not drawn) [Me-Asn-Tyr-NH2]
Ki [4]: 5.71 µM
